{"source": "patent US11034702B2", "about": "“Thienoisoquinolines and their derivatives for the treatment of cancer” (VALORBEC, SOCIÉTÉ EN COMMANDITE, priority 2016, dated 2021)", "key": {"HeLa cells": {"test_system": "HeLa cells", "experiment": "Mitotic spindle / centrosome phenotype in HeLa cells (tubulin and DAPI staining, live imaging)", "assay_type": "cell-based, human", "protocol": "There were more rounded mitotic cells after C75 treatment in comparison to the control. FIG. 1B) is a line graph showing the percentage of HeLa and HFF1 cells in mitosis after treatment with various concentrations of C75 for 8 hours. The bars indicate standard deviation. FIG. 1C) is a series of images showing cells that were fixed and co-stained for tubulin (microtubules) and DAPI (DNA). Treatment of HeLa cells with 300 nM C75 caused the mitotic spindles to be disorganized, while they were not affected in HFF1 cells. […] The scale bar for the cells is 10 μm. FIG. 1D) is a cartoon schematic showing the key features of a metaphase cell.\n(§1) FIG. 2A) is a line graph showing the percentage of HCT116 (p53−/−) cells, A549 cells, HeLa cells and H1299 cells in mitosis after treatment with various concentrations of C75 for one population doubling time. All of the cell lines show an increase in the proportion of mitotic cells after treatment with 200 nM C75. The bars indicate standard deviation. […] While the mitotic spindles were not dramatically altered by C75 in HFF1 cells, they were monopolar (as shown) or fragmented in the other cell types. […] The mitotic spindles were more strongly fragmented after C75 treatment in these cells vs. the cells in FIG. 2B). […] While mitotic spindles recovered bipolarity after removing nocodazole, they remained multipolar after removing C75. FIG. 2F) is a series of time-lapse images of a live HeLa cell expressing GFP:tubulin after treatment with C75 as shown in 2D) and 2E). The scale bar for all cells is 10 μm. FIG. 2G) is a schematic showing the putative target for C75. Healthy cells have two centrosomes that separate and form a bipolar spindle, while cancer cells have aberrant centrosomes that cluster to form ‘pseudo’ bipolar spindles, and C75 may target this process and their integrity.\nFIG. 3A) is a line graph showing the percentage of mitotic HeLa or HFF1 cells treated with a range of paclitaxel (Taxol™; tubulin-targeting drug) concentrations+/−C75 as indicated. The bars indicate standard deviation. FIG. 3B) is a series of bar graphs showing the proportion of HCT116 cells that have monopolar spindles, bipolar spindles with aligned chromosomes, bipolar spindles with misaligned chromosomes and multipolar/fragmented spindles after treatments as shown. Treatments include DMSO (control), varying concentrations of paclitaxel and/or varying concentrations of C75 after 7 hours. While treatment of HCT116 cells with 2.5 nM paclitaxel caused a threshold of mitotic spindle phenotypes, adding increasing concentrations of C75 in combination with 2.5 nM paclitaxel caused the phenotypes to progressively worsen. FIG. 3C) is bar graph showing the average distance between centrosome fragments in HCT116 cells after treatments as shown. While centrosome fragments moved closer together with increased concentrations of paclitaxel, they moved further apart with increased concentrations of C75. […] FIG. 3E) is a line graph showing the percentage of mitotic HeLa or HFF1 cells treated with a range of nocodazole concentrations+/−C75 as indicated. The bars indicate standard deviation. FIG. 3F) is a series of images showing fixed HeLa cells after treatment with C75+/− nocodazole co-stained for tubulin, γ-tubulin and DNA (DAPI). […] Adding nocodazole to cells treated with 300 nM C75 caused mitotic spindle phenotypes to worsen and appear more similar to those after treatment with 600 nM C75. The scale bar for all cells is 10 μm. FIG. 3G) is a bar graph showing the percentage of phenotypes observed for metaphase HeLa cells treated with nocodazole or C75, or both for 20 minutes (n>15 per treatment).\nSpindle fragmentation only occurred after extensive microtubule depolymerization in colchicine-treated cells, while the spindle poles fragmented prior to changes in microtubules after C75 treatment. The scale bar for all cells is 10 μm.\nC75 was further tested and found to cause mitotic arrest in HeLa cells. […]"}, "MCF-7 cells": {"test_system": "MCF-7 cells", "experiment": "Mitotic spindle phenotype in MCF-7 cells", "assay_type": "cell-based, human", "settings": "MCF-7, 300 nM, 6-8 hours", "protocol": "as §1, with “Healthy cells have two centrosomes that separate and form a bipolar spindle, while cancer cells have aberrant centrosomes that cluster to form ‘pseudo’ bipolar spindles, and C75 may target this process and their integrity.” left out\nC75 was also tested for efficacy in different cancer cell lines. […] To further assess the role of C75 in affecting centrosomes, HeLa cells were treated with C75 for a short period of time (5 minutes), then C75 was removed and the cells were analyzed for spindle phenotypes (schematic in FIG. 2D). […]"}}, "note": "Entries after “also recorded” stand apart in the source; their conditions may differ."}
{"smiles": "COc1ccc(S(=O)(=O)N2Cc3ccccc3-c3sc(Br)cc32)cc1", "note": "[Compound C75]", "values": [{"measurement": "mitotic spindle phenotype", "setting": "HeLa cells; HeLa, 300 nM", "result": "spindle organization was perturbed; also recorded: most of the spindles were severely fragmented"}, {"measurement": "mitotic spindle phenotype", "setting": "HeLa cells; HeLa, 750 nM", "result": "Centrosomes were fragmented or declustered and microtubules were completely absent; also recorded: complete fragmentation of the mitotic spindles"}, {"measurement": "spindle phenotype at lower concentrations", "setting": "HeLa cells; HeLa, 8 hours, 30 nM colchicine or 300 nM C75", "result": "disrupted spindle poles"}, {"measurement": "spindle phenotype at higher concentrations", "setting": "HeLa cells; HeLa, 8 hours, 40 or 50 nM colchicine, 400 or 500 nM C75", "result": "spindle fragmentation prior to extensive loss of microtubules"}, {"measurement": "time after exposure until centrosomes fragmented or declustered and microtubules collapsed", "setting": "HeLa cells; live imaging, HeLa GFP:tubulin", "result": "4 to 6", "unit": "min"}, {"measurement": "time until microtubule polymers grew again", "setting": "HeLa cells; live imaging, HeLa, after wash-out, spindles tri- or multipolar", "result": "20 to 30", "unit": "min"}, {"measurement": "spindle phenotype after drug wash-out", "setting": "HeLa cells; metaphase HeLa, 5 minutes treatment, washed out, imaged after 40 minutes", "result": "tri- or multipolar spindles formed"}, {"measurement": "spindle phenotype, drugs alone vs. together", "setting": "HeLa cells; metaphase HeLa, nocodazole or C75 or both, 20 minutes", "result": "disorganized and/or fragmented mitotic spindles"}, {"measurement": "mitotic spindle phenotype", "setting": "MCF-7 cells", "result": "mix of monopolar, bipolar and multipolar spindles"}]}
